# Assay results: patent publication US8338401B2, “Coumarin-amide derivatives and its preparation, said drug composition and its use” (Institute of Materia Medica Chinese Academy of Medical …, priority 2002, dated 2012)
# “Also recorded” adds a separate entry of the source. Read-outs that look alike come from different tables or passages of the source.
# What was measured:
# [1] = test system: chronic renal failure induced by 5/6 nephrectomy in rats; format: in vivo, Male Wistar rats
# Protocol: The model on chronic renal failure induced by partial renal ablation in rats was set up according to the Guidelines of Pre-clinic Research for New Drugs. Male Wistar rats with initial body weights of 200 g, anesthetized with 35 mg/kg of pentobarbital i.p., the right kidney was removed, and the upper and lower pole […] of the left kidney were resected, stop bleeding, closed the abdominal and sutured. Four weeks following surgery, the BUN, creatinine and urinary protein in rats were determined. […] Rats were randomly divided into seven groups, 30/group, with sham, model, Benazepril (4 mg/kg/day) and Losartan (10 mg/kg/day) as positive control, and compound 149 groups (7.5 mg/kg/day, 15 mg/kg/day and 30 mg/kg/day, respectively). All the groups were administered intragastrically, once per day and 6 (six) times per week, till 16 weeks post surgery. Body weights were weighed to observe the growth of the rats. The above indexes were determined every 4 weeks up to the 16th week following the initiation of drug administration, and at each time, a number of animals were sacrificed and the kidneys were harvested for pathological analysis. Pathological lesions in chronic renal failure models are mainly glomerulosclerosis and interstitial fibrosis. According to the damage extents, glomerulosclerosis is divided into five grades (0 IV). 0 grade means no glomerulus pathological changes at all, and IV grade means ultimately glomerular sclerosis and glassy pathological changes.
# [2] = test system: kidney tubulointerstitial fibrosis caused by unilateral ureteral obstruction (UUO) in rats; experiment: Inhibition of kidney tubulointerstitial fibrosis caused by unilateral ureteral obstruction (UUO) in rats; format: in vivo, Male Wistar rats; details: for BUN / Scr. (serum creatinine): oral for 16 days
# Protocol: Male Wistar rats with initial body weights of 180˜230 g were used. Unilateral ureteral obstruction was performed under pentobarbital anesthesia (35 mg/kg) and sterile conditions. Via a midline incision, the left ureteral was ligated. Sham surgery was performed by making a midline incision but leaving ureteral intact. Following surgery, rats were randomly divided into sham, model, Benazepril (4 mg/kg/day) and Losartan (10 mg/kg/day) as positive control, and compound 149 (5 mg/kg/day, 10 mg/kg/day and 20 mg/kg/day). Starting 2 day before surgery, Benazepril, Losartan and compound 149 were administered for 16 days orally. BUN and creatinine in serum were determined in the 11th and 16th day (Table 6) following initiation of Benazepril, Losartan and compound 149 treatment, at which time animals were killed and the kidneys were harvested. Tissues were dissected, weighed, fixed in 10% formaldehyde and embedded in paraffin wax for pathological analysis.
# [3] = test system: Salmonella typhimurium TA97, TA98, TA100 and TA102; experiment: Ames test; format: cell-based; details: 0.5-5000.0 μg/plate, presence or absence of S9
# Protocol: His^− type Salmonella typhimurium TA97, TA98, TA100 and TA102 were employed. Concentration of the test compound was 0.5, 5.0, 50.0, 500.0, 5000.0 μg/plate. S9 was the microsome component of liver homogenate of a rat weighted 200 g. The test compound 149 was tested in the presence or absence of S9.
# According to the Salmonella typhimurium/mammalian microsome enzyme mutagenic test method revised by Ames (1983), metabolism activated or non-metabolism activated plate incorporation assay was conducted on compound 149, and the strain which passed the assay was seeded to the culture medium and incubated at 37° C. under shaking for 15 hours. 100 μl compound solutions with various concentrations were added to 0.1 ml of the culture liquid, and then S9 mixture or phosphate buffer was added, and the mixtures were incubated in a 37° C. water bath for 20 minutes. After that, 2 ml of upper layer agar was added, mixed well and poured into a plate with lower layer agar and incubated at 37° C. for 48 hours. The number of the colonies in each plate was counted.
# [4] = Primary acute toxicity test; format: in vivo; details: mice
# Protocol: 5 g/kg and 10 g/kg of compound 149 were administered orally to mice once and observed for 14 days. Body weights of 48 hours after administration in mice were no different. At 14th day after administration, the mouse average body weights in 5 g/kg and 10 g/kg groups increased 7 g and 5 g respectively. There was no any other different for every animal and no death were observed.
# [5] = 8th week after administration (12 weeks after nephrectomy), 7.5 mg/kg
# [6] = 8th week after administration (12 weeks after nephrectomy), 15 mg/kg
# [7] = 8th week after administration (12 weeks after nephrectomy), 30 mg/kg
# [8] = 8th week after administration (12 wk after nephrectomy), 7.5 mg/kg
# [9] = 8th week after administration (12 wk after nephrectomy), 15 mg/kg
# [10] = 8th week after administration (12 wk after nephrectomy), 30 mg/kg
# [11] = 12th week after administration (16 weeks after nephrectomy), 7.5 mg/kg
# [12] = 12th week after administration (16 weeks after nephrectomy), 15 mg/kg
# [13] = 12th week after administration (16 weeks after nephrectomy), 30 mg/kg
# [14] = 12th week after administration (16 wk after nephrectomy), 7.5 mg/kg
# [15] = 12th week after administration (16 wk after nephrectomy), 15 mg/kg
# [16] = 12th week after administration (16 wk after nephrectomy), 30 mg/kg
compound,measurement,setting,value
"Cc1c(O)c([N+](=O)[O-])cc2cc(C(=O)Nc3ccc(O)c(C(=O)O)c3)c(=O)oc12 [Compound 149, 3-(3′-carboxy-4′-hydroxy-phenylamidocarbonyl)-6-nitro-7-hydroxy-8-methyl-coumarin]","various parameters (BUN, Cre, TGF-β1, Ang II) compared with the positive controls Benazepril and Losartan",[1]; 5/6 nephrectomy rats,all better than those of the Benazepril group and are equivalent to those of the Losartan group
same,BUN,[1]; [5],22.35 ± 3.120 mg/dL
same,serum creatinine (Scr.),[1]; [5],2.14 ± 0.500 mg/dL
same,BUN,[1]; [6],26.04 ± 4.234 mg/dL
same,serum creatinine (Scr.),[1]; [6],1.80 ± 0.550 mg/dL
same,BUN,[1]; [7],30.54 ± 11.697 mg/dL
same,serum creatinine (Scr.),[1]; [7],1.89 ± 0.184 mg/dL
same,AII (Angiotensin II),[1]; [8],63.9 ± 13.2 pg/mL
same,UP (urinary protein),[1]; [8],30.1 ± 16.6 mg/day
same,serum TGF-β1,[1]; [8],20.0 ± 6.7 ng/mL
same,AII (Angiotensin II),[1]; [9],49.9 ± 21.3 pg/mL
same,UP (urinary protein),[1]; [9],30.4 ± 16.2 mg/day
same,serum TGF-β1,[1]; [9],18.6 ± 12.2 ng/mL
same,AII (Angiotensin II),[1]; [10],41.0 ± 12.5 pg/mL
same,UP (urinary protein),[1]; [10],34.3 ± 12.1 mg/day
same,serum TGF-β1,[1]; [10],18.9 ± 10.1 ng/mL
same,Glomerulosclerosis Grade (%): 0,"[1]; 8 wk after ad., 7.5 mg/kg",15.7 ± 19.0%
same,Glomerulosclerosis Grade (%): I,"[1]; 8 wk after ad., 7.5 mg/kg",24.0 ± 21.1%
same,Glomerulosclerosis Grade (%): II,"[1]; 8 wk after ad., 7.5 mg/kg",30.0 ± 20.8%
same,Glomerulosclerosis Grade (%): III,"[1]; 8 wk after ad., 7.5 mg/kg",23.2 ± 28.5%
same,Glomerulosclerosis Grade (%): IV,"[1]; 8 wk after ad., 7.5 mg/kg",8.0 ± 13.0%
same,Glomerulosclerosis Total Grade,"[1]; 8 wk after ad., 7.5 mg/kg",5.7 ± 2.9
same,Glomerulosclerosis Grade (%): 0,"[1]; 8 wk after ad., 15 mg/kg",37.5 ± 29.3 %
same,Glomerulosclerosis Grade (%): I,"[1]; 8 wk after ad., 15 mg/kg",27.5 ± 16.3%
same,Glomerulosclerosis Grade (%): II,"[1]; 8 wk after ad., 15 mg/kg",18.8 ± 9.9%
same,Glomerulosclerosis Grade (%): III,"[1]; 8 wk after ad., 15 mg/kg",13.3 ± 20.7%
same,Glomerulosclerosis Grade (%): IV,"[1]; 8 wk after ad., 15 mg/kg",2.9 ± 8.2%
same,Glomerulosclerosis Total Grade,"[1]; 8 wk after ad., 15 mg/kg",3.9 ± 1.7
same,Glomerulosclerosis Grade (%): 0,"[1]; 8 wk after ad., 30 mg/kg",28.3 ± 20.8%
same,Glomerulosclerosis Grade (%): I,"[1]; 8 wk after ad., 30 mg/kg",34.2 ± 23.0%
same,Glomerulosclerosis Grade (%): II,"[1]; 8 wk after ad., 30 mg/kg",7.5 ± 8.8 %
same,Glomerulosclerosis Grade (%): III,"[1]; 8 wk after ad., 30 mg/kg",17.5 ± 30.7%
same,Glomerulosclerosis Grade (%): IV,"[1]; 8 wk after ad., 30 mg/kg",6.7 ± 13.4%
same,Glomerulosclerosis Total Grade,"[1]; 8 wk after ad., 30 mg/kg",4.9 ± 3.5
same,BUN,[1]; [11],39.42 ± 4.686 mg/dL
same,serum creatinine (Scr.),[1]; [11],2.73 ± 0.78 mg/dL
same,BUN,[1]; [12],37.32 ± 5.467 mg/dL
same,serum creatinine (Scr.),[1]; [12],2.63 ± 0.38 mg/dL
same,BUN,[1]; [13],36.60 ± 5.422 mg/dL
same,serum creatinine (Scr.),[1]; [13],2.10 ± 0.71 mg/dL
same,AII (Angiotensin II),[1]; [14],48.3 ± 48.5 pg/mL
same,UP (urinary protein),[1]; [14],66.7 ± 38.8 mg/day
same,serum TGF-β1,[1]; [14],13.6 ± 7.1 ng/mL
same,AII (Angiotensin II),[1]; [15],41.3 ± 28.4 pg/mL
same,UP (urinary protein),[1]; [15],52.3 ± 34.4 mg/day
same,serum TGF-β1,[1]; [15],12.3 ± 7.7 ng/mL
same,AII (Angiotensin II),[1]; [16],19.2 ± 9.19 pg/mL
same,UP (urinary protein),[1]; [16],48.2 ± 31.6 mg/day
same,serum TGF-β1,[1]; [16],11.6 ± 6.7 ng/mL
same,"Glomerulus pathological scores, compared with the model group","[1]; 12 weeks after nephrectomy (8 weeks since administration), compound 149 30 mg/kg, Losartan 10 mg/kg/day",less than that of the model group significantly
same,"rates of 0 grade glomerylus in residual kidney, compared with the model group","[1]; 12 weeks after nephrectomy (8 weeks since administration), compound 149 30 mg/kg, Losartan 10 mg/kg/day, P<0.05",higher than that of the model group with significant difference
same,Glomerulosclerosis Grade (%): 0,"[1]; 12 wk after ad., 7.5 mg/kg",0%
same,Glomerulosclerosis Grade (%): I,"[1]; 12 wk after ad., 7.5 mg/kg",2.3 ± 6.3%
same,Glomerulosclerosis Grade (%): II,"[1]; 12 wk after ad., 7.5 mg/kg",37.1 ± 16.0%
same,Glomerulosclerosis Grade (%): III,"[1]; 12 wk after ad., 7.5 mg/kg",51.4 ± 8.6%
same,Glomerulosclerosis Grade (%): IV,"[1]; 12 wk after ad., 7.5 mg/kg",13.8 ± 20.6%
same,Glomerulosclerosis Total Grade,"[1]; 12 wk after ad., 7.5 mg/kg",8.6 ± 1.9
same,Glomerulosclerosis Grade (%): 0,"[1]; 12 wk after ad., 15 mg/kg",0%
same,Glomerulosclerosis Grade (%): I,"[1]; 12 wk after ad., 15 mg/kg",8.1 ± 14.1%
same,Glomerulosclerosis Grade (%): II,"[1]; 12 wk after ad., 15 mg/kg",38.1 ± 27.4%
same,Glomerulosclerosis Grade (%): III,"[1]; 12 wk after ad., 15 mg/kg",46.2 ± 26.1%
same,Glomerulosclerosis Grade (%): IV,"[1]; 12 wk after ad., 15 mg/kg",9.1 ± 12.6%
same,Glomerulosclerosis Total Grade,"[1]; 12 wk after ad., 15 mg/kg",7.7 ± 1.7
same,Glomerulosclerosis Grade (%): 0,"[1]; 12 wk after ad., 30 mg/kg",0%
same,Glomerulosclerosis Grade (%): I,"[1]; 12 wk after ad., 30 mg/kg",2.0 ± 4.5%
same,Glomerulosclerosis Grade (%): II,"[1]; 12 wk after ad., 30 mg/kg",71.3 ± 11.5 %
same,Glomerulosclerosis Grade (%): III,"[1]; 12 wk after ad., 30 mg/kg",26.7 ± 7.8 %
same,Glomerulosclerosis Grade (%): IV,"[1]; 12 wk after ad., 30 mg/kg",0%
same,Glomerulosclerosis Total Grade,"[1]; 12 wk after ad., 30 mg/kg",6.7 ± 0.2
same,"number of grade III glomerulus, compared with the model group","[1]; 16 weeks after nephrectomy (12 weeks since administration), compound 149 30 mg/kg (P<0.01), Losartan 10 mg/kg/day (P<0.05)",less than that of the model group significantly
same,"affection with the major organs such as heart, liver, spleen, and lungs (pathological results)","[1]; rat, in vivo",no significant affection
same,improvement of each biochemical index compared with the positive controls,[2]; UUO rats,"more significant than those of the Losartan group, and equivalent to those of the Benazepril group"
same,inflammatory cell infiltration and tubulointerstitial fibrosis (pathological changes),[2]; UUO rats,significantly attenuated
same,pathological results compared with the positive controls,[2]; UUO rats,better than Benazepril and equivalent with Losartan
same,BUN,"[2]; UUO rats, 5.0 mg/kg",23.71 ± 4.17 mg/dL
same,Scr. (serum creatinine),"[2]; UUO rats, 5.0 mg/kg",1.58 ± 0.49 mg/kg
same,BUN,"[2]; UUO rats, 10.0 mg/kg",20.76 ± 1.56 mg/dL
same,Scr. (serum creatinine),"[2]; UUO rats, 10.0 mg/kg",1.61 ± 0.36 mg/kg
same,BUN,"[2]; UUO rats, 20.0 mg/kg",20.77 ± 2.04 mg/dL
same,Scr. (serum creatinine),"[2]; UUO rats, 20.0 mg/kg",1.60 ± 0.14 mg/kg
same,overall result in the renal interstitial fibrosis model compared with the positive controls,[2]; unilateral ureteral ligation in rats,better than Benazepril and corresponds to (slightly better than) Losartan
same,mutagenesis (Ames test result),[3],no mutagenesis; also recorded: negative
same,"number of colony formation of Salmonella Typhimurium TA97, TA98, TA100 and TA102",[3],did not increase
same,death,"[4]; 5 g/kg and 10 g/kg, observed for 14 days",no death
same,increase of average body weights at 14th day after administration,"[4]; oral once, 5 g/kg",7 g
same,Body weights of 48 hours after administration,"[4]; oral once, 5 g/kg and 10 g/kg",no different
same,increase of average body weights at 14th day after administration,"[4]; oral once, 10 g/kg",5 g
